Assay results from patent US20220387368A1, “AN INHIBITOR OF AN IRON-CONTAINING HYDROGENASE OF A METHANOGENIC ARCHAEON FOR USE IN THE TREATMENT OR PREVENTION OF A PARKINSONIAN CONDITION” (UNIVERSITE DU LUXEMBOURG, priority 2019, published 2022).

How the values were obtained:
[1] = biological target: T1, alpha-synuclein (Homo sapiens, UniProt P37840); assay: Alpha-synuclein aggregation; settings: in contact with alpha-synuclein
T1 construct: expressed in transfected cells; host or cells: HiTox yeast strains, galactose-inducible expression
Procedure: The aggregation of alpha-synuclein is the key molecular hallmark of PD.
The following abbreviations have the meaning given in brackets: α-Syn (alpha-synuclein), α-Syn-F (fibrillary alpha-synuclein, i.e. alpha-synuclein aggregations), Hoechst (DNA staining), TUJ1 (general neuronal marker), TH (tyrosine hydroxylase) and CC3 (cleaved caspase 3 staining, i.e. cell death marker, showing toxicity).
Cells fixed in 4% paraformaldehyde (Merck Millipore, 1004965000) for 15 min at RT and then washed 3× for 5 min with PBS at RT. Prior to immunostaining, a permeabilization step was performed using 0.05% Triton-X100 solution in PBS for 10 min at 4° C. Cells were then blocked for 1 h at RT with 10% FBS in PBS. Incubation with α-synuclein antibody (NOVUS biologicals, NBP1-05194, 1:1000), α-synuclein filament antibody (Abcam, ab20953, 1:5000) and TUJ1 (Millipore, AB9354, 1:600) was done overnight at 4° C. in blocking buffer. The following day, cells were washed with PBS 3× for 5 min at RT. Then, incubation with the corresponding secondary antibodies, Alexa Fluor anti-chicken 488 (Invitrogen, A-11039, 1:1000), Alexa Fluor anti-mouse IgG1 647 (Invitrogen, A-21240, 1:1000) and Alexa Fluor anti-rabbit 568 (Invitrogen, A11036, 1:1000) was performed for 2 h at RT in blocking buffer. Hoechst 33342 solution (Invitrogen, 62249, 1:1000) was added during this step to stain the nuclei. […]

[2] = system: rats; settings: oral administration; cited from earlier work
[3] = system: transgenic mice (Thy1-Syn14 males); settings: mouse, in vivo
Procedure: Newly formed oligomeric forms are then propagated to the CNS via the vagus nerve.
To control toxicity and set an upper threshold level for the chronic exposure study, the ideal concentration in the animals' drinking water (ad libitum) is determined by testing three different concentrations. As reference, the LD50 value determined in rats is used as a threshold for an entire day. The animals, of an average weight of 28 g, take in […] of 2-HP per day. The second factor to account for is the volume of water a C57BI6/j mouse drinks per day, which varies between 5 mL and 8 mL. With an […] water intake per day, the maximum concentration the inventors use is 695 μg/mL of dissolved 2-HP. However, lower doses are aimed for:
These 3 doses are tested on a total of 48 animals. 24 wild-type and 24 transgenic animals are distributed amongst 12 groups. It is essential to have both genotypes in the study, since it cannot be foreseen how human wild-type alpha-synuclein and 2-HP interact in an in vivo model. Further, short-term and long-term effects are analysed. Additionally, this allows to proceed with the post-mortem analysis of the 14 days cohort, allowing to gather information of the early effects of 2-HP on an in vivo system. The following design is used:
In the in-life phase, all animals are checked regularly. Overall behavior in the cage is checked daily. […]

[4] = system: HiTox strains of yeast expressing human alpha-synuclein; assay: Yeast growth toxicity assay, HiTox strain; type: cell-based
Procedure: (§1) Yeast cells were grown in synthetic complement (SC) media containing 6.7 g/L yeast nitrogen base without amino acids, 5 g/L ammonium sulfate supplemented with 2 g/L SC. Media was autoclaved and the carbon source (8% raffinose or galactose) was added to a final concentration of 2%.
(§2) Four fresh single colonies of the Hitox strain and its respective control strain were inoculated from SC-2% glucose plates into 5 mL SC-2% raffinose and incubated overnight with shaking (200 rpm) at 30° C. After ≈20 h, overnight cultures were diluted to OD 0.5 and 2 μL of the yeast cultivation was added to 78 μL drug containing media to a final optical density of 0.0125 in a 384-well microplate. 2-HP was diluted in SC-2% raffinose/galactose and tested at different concentrations (1-100 mM). Finally, the plates are measured in a microplate reader (TECAN™ Infinite M200Pro), at an interval of 10 minutes during 72 h at 30° C. Yeast growth phenotyping was performed as previous described (Jung et al. 2015). Final biomass was corrected using the GATHODE software (Jung et al., 2015). The OD600 at 48 h was taken for the quantification.

[5] = system: IL-1b mRNA expression; assay: IL-1b mRNA expression (qPCR) in murine BMDM model; type: cell-based; settings: 10 mM 2-HP, normalized to β-actin, relative to 0 mM
Procedure: The inventors have tested whether 2-HP can act as signal 1 in the activation of the NLRP3 inflammasome in murine bone-barrow derived macrophages (BMDMs). NLRP3 inflammasome activation is thought to play a role in the pathogenesis of neurodegenerative disorders, and increased levels of this inflammasome and of the related cytokine IL-1b have been detected in Parkinson's patients (Guan & Han, 2020). In these experiments, the cells were grown in BMDM growth media and treated with 2-hydroxypyridine (2.5 and 10 mM) for up to 72 hours. Inflammasome activation was evaluated with qPCR for IL-1b expression (normalized to β-actin), considering the fold change relative to 0 mM 2-HP of each time point. There was a 3.2-fold increase in IL-1b mRNA after 3 hours of 10 mM 2-HP treatment, and 1.5-fold increase after 24 hours (FIG. 8).

[6] = system: enteric neurons; assay: Enteric neuron cell viability (MTT) assay; type: cell-based; settings: 24 h treatment, MTT (FIG. 5)
Procedure: Enteric neurons were cultured in differentiation medium, consisting on Neurobasal (Invitrogen, 21103049) supplemented with 1:200 N2 (Invitrogen, 17502048), 1:100 L-Glutamine (Invitrogen, 25030-024), 1:100 B-27 without Vitamin A (Life Technologies, 12587-010), 1:100 Penicillin/Streptomycin (Invitrogen, 15140122), 25 ng/mL GDNF (Peprotech, 450-10) and 100 μM Ascorbic Acid (Sigma, A5960). Cells were cultured for 21 days in a 6-well plate, then detached with Accutase (Sigma, A6964), and replated into a 96-well plate. Cells were maintained under differentiating conditions until day 31, when they were treated with increasing concentrations of 2-hydroxypyridine (Sigma, H56800). Tested concentrations were as follows: 1 μM, 3 μM, 6 μM, 10 μM, 30 μM, 60 μM, 100 μM, 300 μM, 600 μM, 1 mM and 3 mM.
2-Hydroxypyridine was reconstituted to 10 mM in the differentiation medium described above.
Cells were treated for 24 h, then cell viability was assessed performing a Tetrazolium (MTT) assay. Thiazolyl Blue tetrazolium Bromide (Sigma, M5655) was reconstituted to a 5 mg/mL solution in differentiation media and filtered. 10 μL of the solution were then added to every well containing 100 μL of media. Plate was incubated for 2 h in a normal incubator (37° C., 5% CO2). […] Cells were disaggregated by pipetting vigorously and absorbance was read at 570 nm, using the microplate Cytation 5M reader (Biotek).

[7] = system: control strain; assay: Yeast growth toxicity assay, control strain; type: cell-based
Procedure: as §1, §2

[8] = system: wildtype mice; assay: Adhesive removal test after injection into the brain; type: in vivo; settings: higher 2-HP concentrations, 15 days post-injection, vs PBS
Procedure: The in vivo work testing for effects of 2-HP in a mouse model lead to results from a small-scale 15-day experiment. In this experiment, 2-HP was injected at several concentrations (5, 50 and 100 mM) into the brain of transgenic mice overexpressing human alpha-synuclein, and of wildtype control mice.

[9] = control, higher concentration of 2-HP (FIG. 3C)

## Oc1ccccn1 [2-HP, 2-hydroxypyridine]
[1]
  effect on alpha-synuclein aggregation: promotes aggregation
[2]
  LD50: 124 mg/kg
[3]
  alpha-synuclein in ENS: increased accumulation up to aggregation of alpha-synuclein
  motor symptoms and PD-like pathology: exacerbation of motor symptoms
[4]; HiTox strains of yeast expressing human alpha-synuclein
  dose at which selectively toxic to transgenic alpha-synuclein expressing yeast: 1 mM
[4]; in presence of galactose, HiTox strains (FIG. 3B)
  toxicity (growth), alpha-synuclein induced: A toxic dose-response can be observed in the HiTox strains
[4]; in presence of raffinose (FIG. 3A)
  toxicity (growth), alpha-synuclein not induced: A toxic dose-response can be observed
[5]; 3 hours
  increase in IL-1b mRNA: 3.2 fold
[5]; 24 hours
  increase in IL-1b mRNA: 1.5 fold
[6]
  LD50: around 3 mM
[7]; [9]
  lag time of growth curve: prolonged
  yield of growth curve: unaffected
[7]; in presence of galactose, control strain (FIG. 3B)
  toxicity (growth), control strain: not in the control strain
[8]
  performance in adhesive removal test (sensorimotor function): perform worse
